One may read the IC50 as the concentration that gives 50% inhibition.

We go through five compounds from BindingDB's records for doi:10.1021/bi900167q (Duke University, 2009).

The target of this assay is T1, UDP-3-O-acyl-N-acetylglucosamine deacetylase (Escherichia coli (strain K12), UniProt P0A725).
T1 sequence (P0A725 whole entry): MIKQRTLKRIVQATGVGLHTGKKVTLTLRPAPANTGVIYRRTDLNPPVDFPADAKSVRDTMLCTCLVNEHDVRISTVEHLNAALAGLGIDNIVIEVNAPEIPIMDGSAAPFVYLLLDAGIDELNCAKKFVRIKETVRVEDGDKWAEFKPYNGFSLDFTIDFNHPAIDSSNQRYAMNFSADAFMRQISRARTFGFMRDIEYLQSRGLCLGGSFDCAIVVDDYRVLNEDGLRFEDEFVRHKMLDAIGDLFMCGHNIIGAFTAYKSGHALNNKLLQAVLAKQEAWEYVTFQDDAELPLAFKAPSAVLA
As to the kind of experiment: LpxC Assay. The text has this: Inhibition assay using E. coli LpxC.

Regarding `O=c1ccn(C2OC(CO/N=C/c3ccc(O)c(O)c3O)C(O)C2O)c(=O)[nH]1` (stereo not given) [1-68A analogue], the IC50 was 27 µM.
For `O=c1ccn(C2OC(CO/N=C/c3ccc(O)c(O)c3)C(O)C2O)c(=O)[nH]1` (stereo not given) [1-68Aa analogue] the value was 30 µM; for `O=c1ccn(C2OC(CO/N=C/c3cccc(O)c3O)C(O)C2O)c(=O)[nH]1` (stereo not given) [1-68Ac analogue], greater than 500 µM.
For `O=c1ccn(C2OC(CO/N=C/c3cc(O)c(O)c(O)c3)C(O)C2O)c(=O)[nH]1` (stereo not given) [1-68Ad analogue] the value was greater than 500 µM; for `O=C(CO/N=C/c1ccc(O)c(O)c1O)NCC1OC(n2ccc(=O)[nH]c2=O)C(O)C1O` (stereo not given) [2-68A analogue], 120 µM.
